Assay results from patent US5426104A, “Tricyclic carbapenem compounds, methods of preparation and methods of use” (Glaxo SpA, priority 1991, dated 1995).
In brackets after ≈: the same amount, converted by molar mass.

Legend:
[1] = intravenous administration to the mouse, adverse effects; type: in vivo; conditions: 500 mg/kg intravenously
Excerpt: (§1) The compounds of the invention are essentially non-toxic at therapeutically useful doses.

[2] = intravenous administration to the rat, adverse effects; type: in vivo; conditions: 500 mg/kg intravenously
Excerpt: as §1

E coli 1852E = conditions: 18 h
Experimental: (§2) For example the antibacterial activity of the compounds of the invention was determined using a standard microtiter broth serial dilution test. In this test the broth was incubated with approximately 10^5 colony forming units of the test organism and incubated at 35° for 18 hours in the presence of test compound.

S aureus 663E = assay: standard microtiter broth serial dilution test, S aureus 663E; conditions: 18 h
Experimental: as §2

E cloacae 3647 = assay: standard microtiter broth serial dilution test, E cloacae 3647; conditions: 18 h
Experimental: as §2

S faecalis 850E = assay: standard microtiter broth serial dilution test, S faecalis 850E; conditions: 18 h
Experimental: as §2

B fragilis 2017E = assay: standard microtiter broth serial dilution test, B fragilis 2017E; conditions: 18 h
Experimental: as §2

P aeruginosa 1911E = assay: standard microtiter broth serial dilution test, P aeruginosa 1911E; conditions: 18 h
Experimental: as §2

SMILES	adverse effects [1]	adverse effects [2]	MIC (E coli 1852E)	MIC (S aureus 663E)	MIC (E cloacae 3647)	MIC (S faecalis 850E)	MIC (B fragilis 2017E)	MIC (P aeruginosa 1911E)
C[C@@H](O)[C@H]1C(=O)N2C(C(=O)O)=C3[C@H](CCC[C@@H]3N(C)C=N)[C@H]12 [Example 1, (4S,8S,9R,10S,12R)-4-(N-methylformamidino)-10-(1-hydroxyethyl)-11-oxo-1-azatricyclo[7.2.0.0^3.^8]undec-2-ene-2-carboxylic acid]	no adverse effects were observed	no adverse effects were observed	0.5 µg/mL (≈ 1.63 µM)	0.1 µg/mL (≈ 0.325 µM)	1 µg/mL (≈ 3.25 µM)	1 µg/mL (≈ 3.25 µM)	0.2 µg/mL (≈ 0.651 µM)	8 µg/mL (≈ 26 µM)
CN=CN[C@H]1CCC[C@H]2C1=C(C(=O)O)N1C(=O)[C@H]([C@@H](C)O)[C@@H]21 [Example 2, (4 S,8S,9R,10S,12R)-4-[(3'-methyl)formamidino)-10-(1-hydroxyethyl)-11-oxo-1-azatricyclo[7.2.0.0^3.^8]undec-2-ene-2-carboxylic acid]	–	–	2 µg/mL (≈ 6.51 µM)	0.1 µg/mL (≈ 0.325 µM)	4 µg/mL (≈ 13 µM)	16 µg/mL (≈ 52.1 µM)	0.5 µg/mL (≈ 1.63 µM)	16 µg/mL (≈ 52.1 µM)
